In patent US10266535B2, “Inhibitor of FLT3 kinase and use thereof” (HEFEI INSTITUTES OF PHYSICAL SCIENCE, CHINESE ACADEMY OF …, priority 2015, dated 2019):

Key:
[1] = test system: MV4-11 (expressing FLT3/ITD mutant gene); test: Cell proliferation, Cell Titer-Glo, MV4-11; type: cell-based; details: Homo sapiens, MV4-11, 72 h, read-out: MV4-11 IC50 [μM]
Procedure, shortened: (§1)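 Read-out: luminescence from ATP in live cells (CellTiter-Glo), taken as viable cell number. Cell lines were built in-house.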

[2] = test system: MOLM-13 (expressing FLT3/ITD mutant gene and wild-type FLT3 gene); test: Cell proliferation, Cell Titer-Glo, MOLM-13; type: cell-based; details: Homo sapiens, MOLM-13, 72 h, read-out: MOLM-13 IC50 [μM]
Procedure, shortened: as §1

[3] = test system: MOLM-14 (expressing FLT3/ITD mutant gene and wild-type FLT3 gene); test: Cell proliferation, Cell Titer-Glo, MOLM-14; type: cell-based; details: Homo sapiens, MOLM-14, 72 h, read-out: MOLM-14 IC50 [μM]
Procedure, shortened: as §1

[4] = test system: TEL-BaF3-FLT3/ITD (stably expressing FLT3/ITD mutant activated kinase); test: Cell proliferation, Cell Titer-Glo, TEL-BaF3-FLT3/ITD; type: cell-based, mouse; details: Mus musculus, 72 h, read-out: TEL-BaF3-FLT3/ITD IC50 [μM], incubated for 72 hours
Procedure, shortened: (§2)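 Cells from the in-house-constructed BaF3 lines were grown with compound. Viability was then scored by chemiluminescent detection of cellular ATP.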

[5] = test system: BaF3-FLT3-ITD-D835Y (stably expressing FLT3/ITD D835Y mutant activated kinase); test: Cell proliferation, Cell Titer-Glo, BaF3-FLT3-ITD-D835Y; type: cell-based; details: Mus musculus, 72 h, read-out: BaF3-FLT3-ITD-D835Y IC50 [μM]
Description: (§3) The above cell lines were constructed by our laboratory.
(§4) The number of viable cells was determined by quantification of ATP in living cells using the Cell Titer-Glo® (Promega, USA) chemiluminescence cell viability assay kit.

[6] = test system: BaF3-FLT3-ITD-F691L (stably expressing FLT3/ITD F691L mutant activated kinase); test: Cell proliferation, Cell Titer-Glo, BaF3-FLT3-ITD-F691L; type: cell-based; details: Mus musculus, 72 h, read-out: BaF3-FLT3-ITD-F691L IC50 [μM]
Procedure, shortened: as §2

[7] = test system: pro-B cell BaF3; test: Cell proliferation, Cell Titer-Glo, BaF3; type: cell-based; details: Mus musculus, incubated for 72 hours
Procedure, shortened: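 Viable cells quantified by CellTiter-Glo ATP luminescence; BaF3 lines generated in-house.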

[8] = test system: U937 (expressing wild-type FLT3 gene); test: Cell proliferation, Cell Titer-Glo, U937; type: cell-based, human; details: Homo sapiens, U-937, 72 h, read-out: U937 IC50 [μM], incubated for 72 hours
Procedure, shortened: as §1

[9] = test system: TEL-BaF3-BMX (stably expressing BMX kinase); test: Cell proliferation, Cell Titer-Glo, TEL-BaF3-BMX; type: cell-based; details: Mus musculus; incubated for 72 hours
Procedure, shortened: as §2

[10] = test system: TEL-cKIT-BaF3 (stably expressing cKIT kinase); test: Cell proliferation, Cell Titer-Glo, TEL-cKIT-BaF3; type: cell-based; details: Mus musculus; incubated for 72 hours
Procedure, shortened: as §2

[11] = test system: BaF3-tel-cKit-N882K (stably expressing cKIT N882K mutant activated kinase); test: Cell proliferation, Cell Titer-Glo, BaF3-tel-cKit-N882K; type: cell-based; details: Mus musculus; incubated for 72 hours
Description: as §3, §4

[12] = test system: BaF3-tel-cKit-D816V (stably expressing cKIT D816V mutant activated kinase); test: Cell proliferation, Cell Titer-Glo, BaF3-tel-cKit-D816V; type: cell-based; details: Mus musculus; incubated for 72 hours
Description: as §3, §4

[13] = test system: BaF3-tel-cKit-T670I (stably expressing cKIT T670I mutant activated kinase); test: Cell proliferation, Cell Titer-Glo, BaF3-tel-cKit-T670I; type: cell-based; details: Mus musculus; incubated for 72 hours
Description: as §3, §4

[14] = test system: TPR-MET-BaF3 (stably expressing MET kinase); test: Cell proliferation, Cell Titer-Glo, TPR-MET-BaF3; type: cell-based; details: Mus musculus; incubated for 72 hours
Procedure, shortened: as §2

[15] = test system: TEL-BaF3-EGFR (stably expressing EGFR kinase); test: Cell proliferation, Cell Titer-Glo, TEL-BaF3-EGFR; type: cell-based; details: Mus musculus; incubated for 72 hours
Procedure, shortened: as §2

[16] = test system: TEL-BaF3-BLK (stably expressing BLK kinase); test: Cell proliferation, Cell Titer-Glo, TEL-BaF3-BLK; type: cell-based; details: Mus musculus; incubated for 72 hours
Procedure, shortened: as §2

[17] = test system: TEL-JAK1-BaF3 (stably expressing JAK1 kinase); test: Cell proliferation, Cell Titer-Glo, TEL-JAK1-BaF3; type: cell-based; details: Mus musculus; incubated for 72 hours
Procedure, shortened: as §2

[18] = biological target: BTK protein kinase (Homo sapiens (Human), UniProt Q06187); test: In vitro inhibition activity (enzymatic activity), ADP-Glo, BTK; type: biochemical; details: ATP 10 μM
[19] = test system: Signaling pathways of FLT3 in MV4-11 and MOLM-14 cell lines; test: Effects on upstream and downstream signaling pathways of FLT3 in cells; type: cell-based, human; details: treated for 4 hours
[20] = test system: MOLM-13 cell lines; test: Cell apoptosis, Western Blot of PARP and Caspase 3 cleavage, MOLM-13; type: cell-based, human; details: MOLM-13, 0.1 μM, after 12 hours
From the text: (§5) Western Blot was used to detect the effects of different concentrations of drugs on protein cleavage of DNA repair enzyme, poly ADP-ribose polymerase PARP and cysteinyl aspartate specific proteinase Caspase 3 at different time intervals (FIG. 3).

[21] = test system: MV4-11 cell lines; test: Cell apoptosis, Western Blot of PARP and Caspase 3 cleavage, MV4-11; type: cell-based, human; details: MV 4-11, 0.1 μM, after 24 hours
From the text: as §5

[22] = test system: MV4-11 cell lines carrying FLT3/ITD mutant gene; test: Cell cycle distribution by flow cytometry; type: cell-based, human; details: MV4-11, 0.1 μM, 24 hours
[23] = test system: MOLM-14 cells; test: Nude mouse subcutaneous tumor model with MOLM-14 cells; type: in vivo; details: oral gavage, 2 to 3 weeks
Description: More than 30 mice (5-week-old) (Balb/c-nu female mice, purchased from Shanghai Snake Experimental Animal Co., Ltd.) were inoculated subcutaneously with MOLM-14 cells in 1×10^7 cells/mouse, the changes in body weight and tumor volume were recorded daily (tumor volume=Tumor length×tumor width^2/2).

Chain of BTK protein kinase (Q06187 whole entry): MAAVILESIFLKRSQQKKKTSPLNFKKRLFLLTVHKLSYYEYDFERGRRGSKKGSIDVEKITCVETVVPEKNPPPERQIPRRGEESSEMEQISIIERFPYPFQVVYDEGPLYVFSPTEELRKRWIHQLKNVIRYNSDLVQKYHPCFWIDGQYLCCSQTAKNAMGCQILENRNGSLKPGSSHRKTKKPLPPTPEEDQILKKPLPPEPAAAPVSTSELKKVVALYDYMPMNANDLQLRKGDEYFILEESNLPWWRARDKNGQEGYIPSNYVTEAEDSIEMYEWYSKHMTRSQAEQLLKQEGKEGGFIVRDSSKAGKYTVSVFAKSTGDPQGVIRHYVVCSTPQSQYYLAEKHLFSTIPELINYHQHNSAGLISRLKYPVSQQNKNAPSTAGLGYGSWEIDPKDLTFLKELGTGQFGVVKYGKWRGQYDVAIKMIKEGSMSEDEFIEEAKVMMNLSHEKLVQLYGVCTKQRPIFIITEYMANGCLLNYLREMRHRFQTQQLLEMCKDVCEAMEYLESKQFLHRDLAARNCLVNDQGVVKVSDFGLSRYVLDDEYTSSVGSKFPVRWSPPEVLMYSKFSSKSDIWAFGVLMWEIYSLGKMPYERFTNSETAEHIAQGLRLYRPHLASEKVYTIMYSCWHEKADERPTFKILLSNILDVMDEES

Molecule CN(C)CC(=O)N1CCC[C@@H](n2nc(-c3ccc(Oc4ccccc4)cc3)c3c(N)ncnc32)C1 [Compound 22, (R)-1-(3-(4-amino-(4-phenoxyphenyl)-1H-pyrazolo[3,4-d]pyrimidin-1-yl)piperidin-1-yl)-2-(dimethylamino)ethanone] has an IC50 [1] of 0.022 µM, an IC50 [2] of 0.021 µM and an IC50 [3] of 0.042 µM. It also gave an IC50 [4] of 0.011 µM, an IC50 [5] of 0.17 µM and an IC50 [6] of 0.22 µM. The IC50 [7] was 4900 nM, the IC50 [8] was 9.7 µM and the IC50 [9] was 280 nM. For the same molecule, the IC50 [10] was 1900 nM, the IC50 [11] was 1200 nM and the IC50 [12] was 1000 nM. For the same molecule, the IC50 [13] was 3600 nM, the IC50 [14] was 2200 nM and the IC50 [15] was 1800 nM. The IC50 [16] was 940 nM, the IC50 [17] was 3800 nM and the IC50 [18] was 190 nM. For the same molecule, the “C-Myc (degradation; for AC220 phosphorylation)” value [19] was “significant effects on the degradation”, the “phosphorylation of STAT5” value [19] was “very strong inhibitory effects” and the “phosphorylation of protein kinase FLT3” value [19] was “strongly inhibited”. For the same molecule, the “cleavage of Caspase 3” value [20] was “very significant cleavage”, the “cleavage of poly ADP-ribose polymerase PARP” value [20] was “very significant cleavage” and the “cleavage of Caspase 3” value [21] was “very significant cleavage”. The “cleavage of poly ADP-ribose polymerase PARP” value [21] was “significant cleavage”, the “number of cells captured in G0-G1 phase” value [22] was 95.78% and the “tumor growth of the mice” value ([23]; 12.5-50 mg/kg) was “significantly inhibited”. For the same molecule, the “tumor volume growth of the mice” value ([23]; dose not specified) was “significantly slowed down”.
